According to PubChem BioAssay AID1963873 (Molecular Pharmacology Branch, DTP, NCI, 2024):
Active and inactive are the calls of the source. The calls were made as follows: active = viability on the fitted dose curve at most 10% of control; inactive = the rest.

System: 276233-004-R-J1-PDC KRAS spheroids with HUVEC/MSC, viability
Experiment: Anticancer human tumor 276233-004-R-J1-PDC patient-derived colon adenocarcinoma cell line growth inhibition [KRAS2]
Conditions: for IC50: curve of first compound; for viability, T/C: stronger effect = lower value
Method in brief: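 Combination screen of spheroid viability in tumor-cell co-cultures with endothelial (HUVEC) and mesenchymal stem cell stroma. Each agent was tested in half-log dilutions, topping at clinical Cmax or at 10 microM without a known Cmax.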

[1] = second compound 0.1 µM, first compound 0.000316 µM
[2] = second compound 0.1 µM, first compound 0.001 µM
[3] = second compound 0.1 µM, first compound 0.00316 µM
[4] = second compound 0.1 µM, first compound 0.01 µM
[5] = second compound 0.1 µM, first compound 0.0316 µM
[6] = second compound 0.316 µM, first compound 0.000316 µM
[7] = second compound 0.316 µM, first compound 0.001 µM
[8] = second compound 0.316 µM, first compound 0.00316 µM
[9] = second compound 0.316 µM, first compound 0.01 µM
[10] = second compound 0.316 µM, first compound 0.0316 µM
[11] = second compound 1 µM, first compound 0.000316 µM
[12] = second compound 1 µM, first compound 0.001 µM
[13] = second compound 1 µM, first compound 0.00316 µM
[14] = second compound 1 µM, first compound 0.01 µM
[15] = second compound 1 µM, first compound 0.0316 µM
[16] = second compound 3.16 µM, first compound 0.000316 µM
[17] = second compound 3.16 µM, first compound 0.001 µM
[18] = second compound 3.16 µM, first compound 0.00316 µM
[19] = second compound 3.16 µM, first compound 0.01 µM
[20] = second compound 3.16 µM, first compound 0.0316 µM
[21] = second compound 10 µM, first compound 0.000316 µM
[22] = second compound 10 µM, first compound 0.001 µM
[23] = second compound 10 µM, first compound 0.00316 µM
[24] = second compound 10 µM, first compound 0.01 µM
[25] = second compound 10 µM, first compound 0.0316 µM
[26] = second compound 0.1 µM, first compound 0.1 µM
[27] = second compound 0.316 µM, first compound 0.1 µM
[28] = second compound 1 µM, first compound 0.1 µM
[29] = second compound 3.16 µM, first compound 0.1 µM
[30] = second compound 10 µM, first compound 0.1 µM
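For IC50 in this document: cells exposed to agents for seven days before viability read.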
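For viability, T/C in this document: cells exposed to agents for seven days before viability read; 100% = DMSO vehicle control wells and lower values mean fewer viable cells.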

Structure (SMILES): CC(=O)Nc1cccc(-n2c(=O)n(C3CC3)c(=O)c3c(Nc4ccc(I)cc4F)n(C)c(=O)c(C)c32)c1 + CNCc1ccccc1-c1csc(C(C)Nc2nc(C)nc3cc(OC)c(OC)cc23)c1
- IC50 (second compound 0.1 µM): 5.93 nM
- IC50 (second compound 0.316 µM): 4.86 nM
- IC50 (second compound 1 µM): 1.42 nM
- IC50 (second compound 3.16 µM): < 0.1 nM
- IC50 (second compound 10 µM): < 0.1 nM
- viability, T/C (second compound 0.1 µM, first compound 0.0001 µM): 97.3%
- viability, T/C [1]: 77.5%
- viability, T/C [2]: 90.5%
- viability, T/C [3]: 59.2%
- viability, T/C [4]: 40.1%
- viability, T/C [5]: 15.5%
- viability, T/C (second compound 0.316 µM, first compound 0.0001 µM): 93.5%
- viability, T/C [6]: 82.1%
- viability, T/C [7]: 83.7%
- viability, T/C [8]: 57%
- viability, T/C [9]: 35.2%
- viability, T/C [10]: 17.3%
- viability, T/C (second compound 1 µM, first compound 0.0001 µM): 69.4%
- viability, T/C [11]: 56.5%
- viability, T/C [12]: 61.1%
- viability, T/C [13]: 27.6%
- viability, T/C [14]: 23.1%
- viability, T/C [15]: 9.49%
- viability, T/C (second compound 3.16 µM, first compound 0.0001 µM): 5.56%
- viability, T/C [16]: 0.89%
- viability, T/C [17]: 3.86%
- viability, T/C [18]: 1.97%
- viability, T/C [19]: 0.56%
- viability, T/C [20]: 0.49%
- viability, T/C (second compound 10 µM, first compound 0.0001 µM): 0.21%
- viability, T/C [21]: 2.92%
- viability, T/C [22]: 4.6%
- viability, T/C [23]: 3.3%
- viability, T/C [24]: 0.22%
- viability, T/C [25]: 3.97%

Structure (SMILES): CN(C)C/C=C/C(=O)Nc1cc2c(Nc3ccc(F)c(Cl)c3)ncnc2cc1O[C@H]1CCOC1 + CC1OCC2(CCN(c3cnc(Sc4ccnc(N)c4Cl)c(N)n3)CC2)C1N
- IC50 (second compound 0.1 µM): > 100 nM
- IC50 (second compound 0.316 µM): > 100 nM
- IC50 (second compound 1 µM): > 100 nM
- IC50 (second compound 3.16 µM): 83.3 nM
- IC50 (second compound 10 µM): > 100 nM
- viability, T/C [1]: 95.9%
- viability, T/C [2]: 96.1%
- viability, T/C [3]: 92.4%
- viability, T/C [4]: 71.3%
- viability, T/C [5]: 80.1%
- viability, T/C [26]: 81.6%
- viability, T/C [6]: 80.7%
- viability, T/C [7]: 76.6%
- viability, T/C [8]: 94.3%
- viability, T/C [9]: 81.1%
- viability, T/C [10]: 75.5%
- viability, T/C [27]: 78.1%
- viability, T/C [11]: 93.2%
- viability, T/C [12]: 95.5%
- viability, T/C [13]: 104%
- viability, T/C [14]: 97.9%
- viability, T/C [15]: 104%
- viability, T/C [28]: 79.5%
- viability, T/C [16]: 56.4%
- viability, T/C [17]: 53%
- viability, T/C [18]: 48.7%
- viability, T/C [19]: 51.1%
- viability, T/C [20]: 54.5%
- viability, T/C [29]: 48.8%
- outcome [21]: inactive
- outcome [22]: inactive
- viability, T/C [23]: 52.6%
- outcome [24]: inactive
- viability, T/C [25]: 50.9%
- viability, T/C [30]: 55.4%

Structure (SMILES): CC(C)n1nc(-c2ccc3oc(N)nc3c2)c2c(N)ncnc21 + C=CC(=O)N1CCN(c2nc(OCC3CCCN3C)nc3c2CCN(c2cccc4cccc(C)c24)C3)CC1CC#N
- IC50 (second compound 0.0316 µM): > 100 nM
- IC50 (second compound 0.1 µM): > 100 nM
- IC50 (second compound 0.316 µM): > 100 nM
- IC50 (second compound 1 µM): > 100 nM
- IC50 (second compound 3.16 µM): 45.8 nM
- viability, T/C (second compound 0.0316 µM, first compound 0.000316 µM): 88.4%
- viability, T/C (second compound 0.0316 µM, first compound 0.001 µM): 143%
- viability, T/C (second compound 0.0316 µM, first compound 0.00316 µM): 83%
- viability, T/C (second compound 0.0316 µM, first compound 0.01 µM): 85.3%
- viability, T/C (second compound 0.0316 µM, first compound 0.0316 µM): 63.2%
- viability, T/C (second compound 0.0316 µM, first compound 0.1 µM): 57.4%
- viability, T/C [1]: 95.8%
- viability, T/C [2]: 85.6%
- viability, T/C [3]: 80.9%
- viability, T/C [4]: 62.8%
- viability, T/C [5]: 63.2%
- viability, T/C [26]: 55.6%
- viability, T/C [6]: 85.9%
- viability, T/C [7]: 90.2%
- viability, T/C [8]: 87.6%
- viability, T/C [9]: 62.9%
- viability, T/C [10]: 56.4%
- viability, T/C [27]: 52.8%
- viability, T/C [11]: 82.8%
- viability, T/C [12]: 110%
- viability, T/C [13]: 81.2%
- viability, T/C [14]: 70.9%
- viability, T/C [15]: 65.5%
- viability, T/C [28]: 70.1%
- viability, T/C [16]: 72.6%
- viability, T/C [17]: 55.3%
- viability, T/C [18]: 69.8%
- viability, T/C [19]: 75.6%
- viability, T/C [20]: 65.8%
- viability, T/C [29]: 16.1%

Structure (SMILES): CC1(C)CCC(CN2CCN(c3ccc(C(=O)NS(=O)(=O)c4ccc(NCC5CCOCC5)c([N+](=O)[O-])c4)c(Oc4cnc5[nH]ccc5c4)c3)CC2)=C(c2ccc(Cl)cc2)C1 + CNCc1ccccc1-c1csc(C(C)Nc2nc(C)nc3cc(OC)c(OC)cc23)c1
- IC50 (second compound 0.1 µM): > 10000 nM
- IC50 (second compound 0.316 µM): 7260 nM
- IC50 (second compound 1 µM): > 10000 nM
- IC50 (second compound 3.16 µM): < 31.6 nM
- IC50 (second compound 10 µM): < 31.6 nM
- viability, T/C [5]: 81.9%
- viability, T/C [26]: 111%
- viability, T/C (second compound 0.1 µM, first compound 0.316 µM): 105%
- viability, T/C (second compound 0.1 µM, first compound 1 µM): 75.4%
- viability, T/C (second compound 0.1 µM, first compound 3.16 µM): 79.5%
- viability, T/C (second compound 0.1 µM, first compound 10 µM): 67.3%
- viability, T/C [10]: 102%
- viability, T/C [27]: 94.9%
- viability, T/C (second compound 0.316 µM, first compound 0.316 µM): 77.5%
- viability, T/C (second compound 0.316 µM, first compound 1 µM): 103%
- viability, T/C (second compound 0.316 µM, first compound 3.16 µM): 69.9%
- viability, T/C (second compound 0.316 µM, first compound 10 µM): 42.3%
- viability, T/C [15]: 110%
- viability, T/C [28]: 51.5%
- viability, T/C (second compound 1 µM, first compound 0.316 µM): 65.7%
- viability, T/C (second compound 1 µM, first compound 1 µM): 59.4%
- viability, T/C (second compound 1 µM, first compound 3.16 µM): 58.5%
- viability, T/C (second compound 1 µM, first compound 10 µM): 42%
- viability, T/C [20]: 0.58%
- viability, T/C [29]: 0.56%
- viability, T/C (second compound 3.16 µM, first compound 0.316 µM): 0.78%
- viability, T/C (second compound 3.16 µM, first compound 1 µM): 0.7%
- viability, T/C (second compound 3.16 µM, first compound 3.16 µM): 0.34%
- viability, T/C (second compound 3.16 µM, first compound 10 µM): 1.88%
- viability, T/C [25]: 0.18%
- viability, T/C [30]: 0.21%
- viability, T/C (second compound 10 µM, first compound 0.316 µM): 0.17%
- viability, T/C (second compound 10 µM, first compound 1 µM): 0.17%
- viability, T/C (second compound 10 µM, first compound 3.16 µM): 0.39%
- viability, T/C (second compound 10 µM, first compound 10 µM): 0.28%
